From ChEMBL document CHEMBL2440076, “New triarylpyrazoles as broad-spectrum anticancer agents: design, synthesis, and biological evaluation” (Eur J Med Chem, 2013)

Legend:
Format in all cases: functional
SK-MEL-28 = experiment: Growth inhibition of human SK-MEL-28 cells assessed as cell growth at 5X10'-5 M after 48 hrs by sulforhodamine B assay; conditions: SK-MEL-28, 48 h, read-out: Activity
OVCAR-4 = experiment: Growth inhibition of human OVCAR4 cells assessed as cell growth at 5X10'-5 M after 48 hrs by sulforhodamine B assay; conditions: OVCAR-4, 48 h, read-out: Activity
SF-295 [1] = experiment: Growth inhibition of human SF295 cells assessed as cell growth at 5X10'-8 M after 48 hrs by sulforhodamine B assay; conditions: SF-295, 48 h, read-out: Activity
SN12C = experiment: Growth inhibition of human SN12C cells assessed as cell growth at 5X10'-6 M after 48 hrs by sulforhodamine B assay; conditions: read-out: Activity
MOLT-4 = experiment: Growth inhibition of human MOLT4 cells assessed as cell growth at 5X10'-7 M after 48 hrs by sulforhodamine B assay; conditions: MOLT-4, 48 h, read-out: Activity
SW-620 [2] = experiment: Growth inhibition of human SW620 cells assessed as cell growth at 5X10'-7 M after 48 hrs by sulforhodamine B assay; conditions: SW-620, 48 h, read-out: Activity
IGROV-1 [3] = experiment: Growth inhibition of human IGROV1 cells assessed as cell growth at 5X10'-6 M after 48 hrs by sulforhodamine B assay; conditions: IGROV-1, 48 h, read-out: Activity
KM12 = experiment: Growth inhibition of human KM12 cells assessed as cell growth at 5X10'-7 M after 48 hrs by sulforhodamine B assay; conditions: KM12, 48 h, read-out: Activity
HOP-92 = experiment: Growth inhibition of human HOP92 cells assessed as cell growth at 5X10'-7 M after 48 hrs by sulforhodamine B assay; conditions: HOP-92, 48 h, read-out: Activity
HT-29 = experiment: Growth inhibition of human HT-29 cells assessed as cell growth at 5X10'-8 M after 48 hrs by sulforhodamine B assay; conditions: HT-29, 48 h, read-out: Activity
CCRF-CEM = experiment: Growth inhibition of human CCRF-CEM cells assessed as cell growth at 5X10'-6 M after 48 hrs by sulforhodamine B assay; conditions: read-out: Activity
LOX IMVI [4] = experiment: Growth inhibition of human LOXIMVI cells assessed as cell growth at 5X10'-9 M after 48 hrs by sulforhodamine B assay; conditions: read-out: Activity
SK-OV-3 = experiment: Growth inhibition of human SKOV3 cells assessed as cell growth at 5X10'-6 M after 48 hrs by sulforhodamine B assay; conditions: SK-OV-3, 48 h, read-out: Activity
SW-620 [5] = experiment: Growth inhibition of human SW620 cells assessed as cell growth at 5X10'-6 M after 48 hrs by sulforhodamine B assay; conditions: SW-620, 48 h, read-out: Activity
SK-MEL-5 = experiment: Growth inhibition of human SK-MEL-5 cells assessed as cell growth at 5X10'-5 M after 48 hrs by sulforhodamine B assay; conditions: SK-MEL-5, 48 h, read-out: Activity
NCI-H226 = experiment: Growth inhibition of human NCI-H226 cells assessed as cell growth at 5X10'-7 M after 48 hrs by sulforhodamine B assay; conditions: NCI-H226, 48 h, read-out: Activity
MDA-MB-468 = experiment: Growth inhibition of human MDA-MB-468 cells assessed as cell growth at 5X10'-8 M after 48 hrs by sulforhodamine B assay; conditions: MDA-MB-468, 48 h, read-out: Activity
PC-3 = experiment: Growth inhibition of human PC3 cells assessed as cell growth at 5X10'-7 M after 48 hrs by sulforhodamine B assay; conditions: PC-3, 48 h, read-out: Activity
SR [6] = experiment: Growth inhibition of human SR cells assessed as cell growth at 5X10'-8 M after 48 hrs by sulforhodamine B assay; conditions: read-out: Activity
OVCAR-3 = experiment: Growth inhibition of human OVCAR3 cells assessed as cell growth at 5X10'-9 M after 48 hrs by sulforhodamine B assay; conditions: OVCAR-3, 48 h, read-out: Activity
OVCAR-5 = experiment: Growth inhibition of human OVCAR5 cells assessed as cell growth at 5X10'-8 M after 48 hrs by sulforhodamine B assay; conditions: OVCAR-5, 48 h, read-out: Activity
A549 = experiment: Growth inhibition of human A549/ATCC cells assessed as cell growth at 5X10'-9 M after 48 hrs by sulforhodamine B assay; conditions: A549, 48 h, read-out: Activity
LOX IMVI [7] = experiment: Growth inhibition of human LOXIMVI cells assessed as cell growth at 5X10'-7 M after 48 hrs by sulforhodamine B assay; conditions: read-out: Activity
SNB-19 [8] = experiment: Growth inhibition of human SNB19 cells assessed as cell growth at 5X10'-5 M after 48 hrs by sulforhodamine B assay; conditions: SNB-19, 48 h, read-out: Activity
NCI-H460 = experiment: Growth inhibition of human NCI-H460 cells assessed as cell growth at 5X10'-9 M after 48 hrs by sulforhodamine B assay; conditions: NCI-H460, 48 h, read-out: Activity
HOP-62 = experiment: Growth inhibition of human HOP62 cells assessed as cell growth at 5X10'-5 M after 48 hrs by sulforhodamine B assay; conditions: HOP-62, 48 h, read-out: Activity
UO-31 [9] = experiment: Growth inhibition of human UO31 cells assessed as cell growth at 5X10'-9 M after 48 hrs by sulforhodamine B assay; conditions: UO-31, 48 h, read-out: Activity
UO-31 [10] = experiment: Growth inhibition of human UO31 cells assessed as cell growth at 5X10'-5 M after 48 hrs by sulforhodamine B assay; conditions: UO-31, 48 h, read-out: Activity
SF-295 [11] = experiment: Growth inhibition of human SF295 cells assessed as cell growth at 5X10'-6 M after 48 hrs by sulforhodamine B assay; conditions: SF-295, 48 h, read-out: Activity
SNB-19 [12] = experiment: Growth inhibition of human SNB19 cells assessed as cell growth at 5X10'-9 M after 48 hrs by sulforhodamine B assay; conditions: SNB-19, 48 h, read-out: Activity
786-0 = experiment: Growth inhibition of human 786-0 cells assessed as cell growth at 5X10'-8 M after 48 hrs by sulforhodamine B assay; conditions: 786-0, 48 h, read-out: Activity
U-251 = experiment: Growth inhibition of human U251 cells assessed as cell growth at 5X10'-7 M after 48 hrs by sulforhodamine B assay; conditions: U-251, 48 h, read-out: Activity
SR [13] = experiment: Growth inhibition of human SR cells assessed as cell growth at 5X10'-5 M after 48 hrs by sulforhodamine B assay; conditions: read-out: Activity
OVCAR-8 = experiment: Growth inhibition of human OVCAR8 cells assessed as cell growth at 5X10'-6 M after 48 hrs by sulforhodamine B assay; conditions: OVCAR-8, 48 h, read-out: Activity
IGROV-1 [14] = experiment: Growth inhibition of human IGROV1 cells assessed as cell growth at 5X10'-5 M after 48 hrs by sulforhodamine B assay; conditions: IGROV-1, 48 h, read-out: Activity
Malme-3M = experiment: Growth inhibition of human MALME-3M cells assessed as cell growth at 5X10'-6 M after 48 hrs by sulforhodamine B assay; conditions: read-out: Activity
NCI-H522 = experiment: Growth inhibition of human NCI-H522 cells assessed as cell growth at 5X10'-6 M after 48 hrs by sulforhodamine B assay; conditions: NCI-H522, 48 h, read-out: Activity

## O=C(Nc1cccc(-n2cc(-c3ccncc3)c(-c3ccc(Cl)c(O)c3)n2)c1)Nc1cc(C(F)(F)F)cc(C(F)(F)F)c1
SK-MEL-28
  growth at 50 µM: -95%
OVCAR-4
  growth at 50 µM: -74%
SF-295 [1]
  growth at 0.05 µM: 90%
SN12C
  growth at 5 µM: 2%
MOLT-4
  growth at 0.5 µM: 81%
SW-620 [2]
  growth at 0.5 µM: 85%
IGROV-1 [3]
  growth at 5 µM: -12%
KM12
  growth at 0.5 µM: 51%
HOP-92
  growth at 0.5 µM: 45%
HT-29
  growth at 0.05 µM: 107%
CCRF-CEM
  growth at 5 µM: 3%
LOX IMVI [4]
  growth at 0.005 µM: 98%
SK-OV-3
  growth at 5 µM: -13%
SW-620 [5]
  growth at 5 µM: 1%
SK-MEL-5
  growth at 50 µM: -94%
NCI-H226
  growth at 0.5 µM: 79%
MDA-MB-468
  growth at 0.05 µM: 85%
PC-3
  growth at 0.5 µM: 41%
SR [6]
  growth at 0.05 µM: 102%
OVCAR-3
  growth at 0.005 µM: 109%
OVCAR-5
  growth at 0.05 µM: 89%
A549
  growth at 0.005 µM: 96%
LOX IMVI [7]
  growth at 0.5 µM: 76%
SNB-19 [8]
  growth at 50 µM: -47%
NCI-H460
  growth at 0.005 µM: 101%
HOP-62
  growth at 50 µM: -90%
UO-31 [9]
  growth at 0.005 µM: 97%
UO-31 [10]
  growth at 50 µM: -86%
SF-295 [11]
  growth at 5 µM: -57%
SNB-19 [12]
  growth at 0.005 µM: 90%
786-0
  growth at 0.05 µM: 99%
U-251
  growth at 0.5 µM: 49%
SR [13]
  growth at 50 µM: -8%
OVCAR-8
  growth at 5 µM: 4%
IGROV-1 [14]
  growth at 50 µM: -55%
Malme-3M
  growth at 5 µM: -21%
NCI-H522
  growth at 5 µM: -28%
